Publication PMC4063695, “Design of Embedded-Hybrid Antimicrobial Peptides with Enhanced Cell Selectivity and Anti-Biofilm Activity” (PLoS ONE, 2014)

Tested on: resistant variants of P. aeruginosa
Assay: microbe, parasite or virus in culture
Format: cell-based
Details: Pseudomonas aeruginosa, ATCC15442
Excerpt: E. coli ATCC25922, P. aeruginosa ATCC27853, S. aureus ATCC29213, S. epidermidis ATCC12228, S. faecalis ATCC29212 and B. subtilis CMCC63501 were obtained from the College of Veterinary Medicine, Northeast Agricultural University (Harbin, China), E. coli K88, E. coli CVCC1515 and P. aeruginosa ATCC15442 were bestowed by Prof. J.H. Wang (Gene Engineering Laboratory, Feed Research Institute, Chinese Academy of Agricultural Sciences Beijing, China) and E. coli UB1005 was kindly provided by Prof. Q.S. Qi (State Key Laboratory of Microbial Technology, Shandong University, China). […] Briefly, 50 µl of approximate 0.5–1 × 10^6 colony forming units (CFU)/ml of cells were diluted in Mueller-Hinton broth and distributed to 96-well plate, 50 µl of twofold peptides were added and the plates was incubated at 37°C for 18–24 h. The MIC values were calculated as the lowest peptide concentration that prevented visible turbidity and negative control of the pure broth without microbes. The tests were performed at least three times in duplicate.

SMILES: CNC(C)C1CCC(N)C(OC2C(N)CC(N)C(OC3OCC(C)(O)C(NC)C3O)C2O)O1 (stereo not shown) [gentamicin]
- MIC: > 256 µM
